This passage reports EC50 and Emax results from patent US8546377B2 (AbbVie Inc., priority 2009, dated 2013).

pEC50: −log10 of the molar value. Like-named read-outs stand apart in the source and are kept apart here. Some results are limits rather than exact numbers.

The target in one test is T1, 5HT2B receptors (Homo sapiens, UniProt P41595).
T1 construct: expressed in transfected cells; host or cells: CHO-K1 cells
The test can be described thus: Human 5-HT2B functional assay in CHO-K1 cells (calcium flux, FLIPR). In kind it is cell-based. To be noted: for EC50: CHO-K1 cells over-expressing 5HT2B, calcium flux, read-out: EC50 (μM), 5-HT2B Agonist Activity. On the procedure:
(§1) (iii) Human 5-HT2C and 5-HT2B Functional Assay in CHO-K1 Cells
(§2) CHO-K1 cells over-expressing 5HT2C or 5HT2B receptors were grown in 1272 cm^2 flasks to 70-80% confluency in UltraCHO media supplemented with 1% dialyzed fetal bovine serum (FBS), 250 μg/mL zeocin, 100 U/mL penicillin/streptomycin, and 400 μg/mL geneticin. The cells were dissociated from the flasks using 0.05% trypsin, resuspended in freezing media and stored in liquid nitrogen until use. Calcium flux experiments were done using frozen cells. The cells were diluted in media containing 1% dialyzed FBS and 100 U/mL penicillin/streptomycin and plated into 384-well poly-D-Lysine coated plates (15,000 cells/well). Then the plates were incubated overnight in a cell incubator at 37° C., 5% CO2. On the next day, the growth media was replaced with media without FBS and further incubated overnight. On day three, the changes in intracellular Ca^2+ were determined using calcium sensitive fluorescent dye, Ca4 (MDS Analytical Technologies, Sunnyvale, Calif.) by loading 15 μL of diluted dye with 2.5 mM probenecid into the cells containing media and incubated at room temperature for 60 minutes in dark.
(§3) Fluorescence measurements were read at 25° C. at an excitation wavelength of 480 nm and an emission wavelength of 530 nm in FLIPR (MDS). Baseline fluorescence was measured for the first 10 seconds and then 15 μL of 4× concentrations of serotonin/test compounds was added to the cell plate. The fluorescence intensity was captured every second for the first 1 minute followed by every 5 seconds for an additional 2 minutes. The increase in fluorescent response was determined and was normalized to the response of serotonin. The concentration response of compounds was done from a starting concentration of 10 μM, 1:10 dilution across 6 wells with a final dimethyl sulfoxide concentration of 0.2% and was fitted using a 4-parameter logistic equation. The concentration at which a compound exerts half its maximal effect was named as ‘effective concentration 50’ or ‘EC50’.
(§4) Emax is the maximum functional response or efficacy expressed as a percentage relative to the effect of serotonin.
(In general: Calcium flux is commonly read through the fluorescence of an indicator in the cells.)

A further test concerns the target T2, 5HT2C receptors (Homo sapiens, UniProt P28335).
T2 sequence (P28335 33-458): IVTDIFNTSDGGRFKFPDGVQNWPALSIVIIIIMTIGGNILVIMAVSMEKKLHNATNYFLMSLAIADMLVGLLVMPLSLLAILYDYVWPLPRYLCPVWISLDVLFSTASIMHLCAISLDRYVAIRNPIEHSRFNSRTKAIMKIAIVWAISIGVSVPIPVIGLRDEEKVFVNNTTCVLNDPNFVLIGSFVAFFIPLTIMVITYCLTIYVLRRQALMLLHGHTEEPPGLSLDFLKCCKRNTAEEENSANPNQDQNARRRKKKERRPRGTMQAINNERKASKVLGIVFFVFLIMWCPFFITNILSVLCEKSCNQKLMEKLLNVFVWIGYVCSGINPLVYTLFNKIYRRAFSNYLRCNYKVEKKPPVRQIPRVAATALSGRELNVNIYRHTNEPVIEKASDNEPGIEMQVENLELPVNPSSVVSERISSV
The test can be described thus: Human 5-HT2C functional assay in CHO-K1 cells (calcium flux, FLIPR). The format is cell-based. The conditions noted are these: for EC50: CHO-K1 cells over-expressing 5HT2C, calcium flux, read-out: EC50 (μM), 5-HT2c Agonist Activity. Also noted: expressed in transfected cells; host or cells: CHO-K1 cells. On the procedure: as §1, §2, §3, §4

The mark [1] stands for this setting: CHO-K1 cells, percentage relative to the effect of serotonin, read-out: Emax (%), 5-HT2c Agonist Activity.
The mark [2] stands for this setting: CHO-K1 cells, percentage relative to the effect of serotonin, read-out: Emax (%), 5-HT2B Agonist Activity.
[3] abbreviates: CHO-K1, read-out: Emax (%), 5-HT2c Agonist Activity, CHO-K1 cells, percentage relative to the effect of serotonin.
The mark [4] stands for this setting: CHO-K1, read-out: Emax (%), 5-HT2B Agonist Activity.

T1 sequence (P41595 whole entry): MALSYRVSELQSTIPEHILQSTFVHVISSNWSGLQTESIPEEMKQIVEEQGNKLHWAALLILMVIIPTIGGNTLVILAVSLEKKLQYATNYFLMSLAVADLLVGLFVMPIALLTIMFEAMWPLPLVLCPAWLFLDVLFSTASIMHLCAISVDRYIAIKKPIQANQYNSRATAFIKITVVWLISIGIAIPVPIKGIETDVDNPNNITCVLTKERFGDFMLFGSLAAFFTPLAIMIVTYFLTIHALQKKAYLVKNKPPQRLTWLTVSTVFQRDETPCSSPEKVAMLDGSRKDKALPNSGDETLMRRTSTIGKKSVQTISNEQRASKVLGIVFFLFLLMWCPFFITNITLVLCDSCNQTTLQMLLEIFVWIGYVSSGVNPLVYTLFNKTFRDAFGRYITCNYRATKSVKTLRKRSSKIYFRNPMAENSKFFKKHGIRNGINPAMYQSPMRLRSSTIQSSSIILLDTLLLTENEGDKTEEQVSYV

As for `O=C1CC2CNCCN2c2cc(CCc3cccc(F)c3)ccc2N1` (stereo not drawn) [Example 145, 10-[2-(3-fluorophenyl)ethyl]-1,2,3,4,4a,5-hexahydropyrazino[1,2-a][1,5]benzodiazepin-6(7H)-one], the EC50 (as a rule, the concentration that produces a half-maximal response) on 5HT2B receptors is over 10 µM; at 5HT2C receptors, 0.006 µM. Further, the Emax (usually the size of the effect at its maximum, as opposed to the concentration needed) at 5HT2C receptors (setting [1]) was over 120%.
Turning to `c1coc(-c2cccc3c2OCC[C@H]2CNCCN32)c1` [Example 251, (4aS)-8-(2-furyl)-2,3,4,4a,5,6-hexahydro-1H-pyrazino[2,1-d][1,5]benzoxazepine], the EC50 is over 10 µM at 5HT2B receptors and 0.0001 µM on 5HT2C receptors. Further, the Emax on 5HT2C receptors (setting [1]) was determined as 90%.
For `CC(=O)c1ccccc1-c1ccc2c(c1)N1CCNC[C@@H]1CCO2` [Example 197, 1-{2-[(4aS)-2,3,4,4a,5,6-hexahydro-1H-pyrazino[2,1-d][1,5]benzoxazepin-10-yl]phenyl}ethanone], the EC50 turned out to be 1 µM at 5HT2B receptors and 0.07 µM on 5HT2C receptors. Also, the Emax was 15% on 5HT2B receptors (setting [2]) and over 120% at 5HT2C receptors (setting [1]).
As to `CCN1CCN2c3ccccc3OCC[C@H]2C1` [Example 235, (4aS)-3-ethyl-2,3,4,4a,5,6-hexahydro-1H-pyrazino[2,1-d][1,5]benzoxazepine], the pEC50 (as a rule, the negative decadic logarithm of the EC50, by convention in mol/L) on 5HT2B receptors was under 5.00; at 5HT2C receptors it was 7.70. Moreover, the Emax at 5HT2C receptors (setting [3]) came to 100%.
As to `CN1C(=O)CC2CNCCN2c2ccc(Cl)cc21` (stereo not drawn) [Example 80, 9-chloro-7-methyl-1,2,3,4,4a,5-hexahydropyrazino[1,2-a][1,5]benzodiazepin-6(7H)-one], the EC50 is over 10 µM at 5HT2B receptors and 0.6 µM on 5HT2C receptors. The maximal response (Emax) at 5HT2C receptors (setting [3]) is 100%.
As for `O=C1CC2CNCCN2c2cc(-c3ccoc3)ccc2N1` (stereo not drawn) [Example 69, 10-(3-furyl)-1,2,3,4,4a,5-hexahydropyrazino[1,2-a][1,5]benzodiazepin-6(7H)-one], the results for the EC50 on 5HT2B receptors and on 5HT2C receptors were 0.09 µM and 0.02 µM, respectively. Also, the results for the Emax at 5HT2B receptors (setting [2]) and at 5HT2C receptors (setting [1]) were 80% and 110%, respectively.
For `O=C1CC2CNCCN2c2cc(-c3cnc4ccccc4c3)ccc2N1` (stereo not drawn) [Example 62, 10-(quinolin-3-yl)-1,2,3,4,4a,5-hexahydropyrazino[1,2-a][1,5]benzodiazepin-6(7H)-one] the same measures were 0.9 µM, 0.06 µM, 60% and over 120%.
As to `O=C1CC2CNCCN2c2cc(-c3cc4ccccc4s3)ccc2N1` (stereo not drawn) [Example 75, 10-(1-benzothiophen-2-yl)-1,2,3,4,4a,5-hexahydropyrazino[1,2-a][1,5]benzodiazepin-6(7H)-one], the EC50 at 5HT2B receptors is over 10 µM; on 5HT2C receptors, 1 µM. In addition, the Emax at 5HT2C receptors (setting [1]) turned out to be 80%.
With `C1=C(c2ccc3c(c2)N2CCNC[C@@H]2CCO3)CCOC1` [Example 210, (4aS)-10-(3,6-dihydro-2H-pyran-4-yl)-2,3,4,4a,5,6-hexahydro-1H-pyrazino[2,1-d][1,5]benzoxazepine], the EC50 is 1 µM at 5HT2B receptors and 0.01 µM on 5HT2C receptors. The Emax at 5HT2B receptors (setting [2]) is 20%; on 5HT2C receptors (setting [1]), over 120%.
As for `O=C1C[C@H]2CNCCN2c2c(F)cccc2N1` [Example 86, (4aS)-11-fluoro-1,2,3,4,4a,5-hexahydropyrazino[1,2-a][1,5]benzodiazepin-6(7H)-one], the pEC50 is under 5.00 on 5HT2B receptors and 8.10 at 5HT2C receptors. Moreover, the Emax on 5HT2C receptors (setting [3]) is over 120%.
`O=C1CC2CNCCN2c2cc(OCc3ccccc3F)ccc2N1` (stereo not drawn) [Example 155, 10-[(2-fluorobenzyl)oxy]-1,2,3,4,4a,5-hexahydropyrazino[1,2-a][1,5]benzodiazepin-6(7H)-one]: the EC50 is over 10 µM on 5HT2B receptors and 0.0384 µM at 5HT2C receptors. The Emax on 5HT2C receptors (setting [1]) is over 120%.
As to `CN1CCN2c3ccccc3CCCC2C1` (stereo not drawn) [Example 183, 3-methyl-1,2,3,4,4a,5,6,7-octahydropyrazino[1,2-a][1]benzazepine], the pEC50 was under 5.00 at 5HT2B receptors and 8.52 on 5HT2C receptors. On 5HT2C receptors (setting [3]), the Emax is over 120%.
Regarding `Clc1ccc2c(c1)N1CCNC[C@H]1CCO2` [Example 261, (4aR)-10-chloro-2,3,4,4a,5,6-hexahydro-1H-pyrazino[2,1-d][1,5]benzoxazepine], the pEC50 at 5HT2B receptors is 7.52; at 5HT2C receptors, 9.40. Besides, the values for the Emax on 5HT2B receptors (setting [4]) and on 5HT2C receptors (setting [3]) were 70% and 90%, respectively.
For `[2H]c1cccc2c1OCC[C@H]1CNCCN21` [Example 254, (4aS)-(8-^2H)-2,3,4,4a,5,6-hexahydro-1H-pyrazino[2,1-d][1,5]benzoxazepine] the same measures were 7.05, 8.30, 35% and 115%.
For `O=C1CC2CNCCN2c2ncccc2N1` (stereo not drawn) [Example 150, 7,7a,8,9,10,11-hexahydropyrazino[1,2-d]pyrido[3,2-b][1,4]diazepin-6(5H)-one], the figures for the EC50 at 5HT2B receptors and on 5HT2C receptors were over 10 µM and 0.2 µM, respectively. For the same molecule, the maximal effect (Emax) on 5HT2C receptors (setting [3]) is over 120%.
On to `Oc1ccc(-c2ccc3c(c2)N2CCNC[C@@H]2CCO3)cc1` [Example 202, 4-[(4aS)-2,3,4,4a,5,6-hexahydro-1H-pyrazino[2,1-d][1,5]benzoxazepin-10-yl]phenol], for which the EC50 was determined as 1 µM at 5HT2B receptors and 0.005 µM on 5HT2C receptors. The Emax at 5HT2B receptors (setting [2]) was 15%; at 5HT2C receptors (setting [1]), over 120%.
In the case of `c1cc(-c2ccc3c(c2)N2CCNC[C@@H]2CCO3)ccn1` [Example 207, (4aS)-10-(pyridin-4-yl)-2,3,4,4a,5,6-hexahydro-1H-pyrazino[2,1-d][1,5]benzoxazepine], the values for the EC50 on 5HT2B receptors and at 5HT2C receptors were over 10 µM and 0.8 µM, respectively. In addition, the Emax at 5HT2C receptors (setting [3]) was over 120%.
With `FCC(CF)N1CCN2c3ccccc3OCC[C@H]2C1` [Example 265, (4aS)-3-(1,3-difluoropropan-2-yl)-2,3,4,4a,5,6-hexahydro-1H-pyrazino[2,1-d][1,5]benzoxazepine], the EC50 was over 10 µM at 5HT2B receptors and 2 µM on 5HT2C receptors. Moreover, the Emax on 5HT2C receptors (CHO-K1, read-out: Emax (%), 5-HT2c Agonist Activity) was determined as 70%.
On to `O=C1C[C@H]2CNCCN2c2cc(OCCc3ccccn3)ccc2N1` [Example 171, (4aS)-10-[2-(pyridin-2-yl)ethoxy]-1,2,3,4,4a,5-hexahydropyrazino[1,2-a][1,5]benzodiazepin-6(7H)-one], for which the EC50 on 5HT2B receptors is over 10 µM; on 5HT2C receptors, 0.9 µM. The Emax on 5HT2C receptors (setting [1]) was 100%.
On to `c1ccc2c(c1)OCC[C@@H]1CNCCN21` [Example 255, (4aR)-2,3,4,4a,5,6-hexahydro-1H-pyrazino[2,1-d][1,5]benzoxazepine], for which the values for the pEC50 on 5HT2B receptors and on 5HT2C receptors were 7.05 and 9.00, respectively. For the same molecule, the Emax came out at 70% on 5HT2B receptors (setting [4]) and 95% on 5HT2C receptors (setting [3]).
As for `C[C@H](Oc1ccc2c(c1)N1CCNCC1CC(=O)N2)c1ccccc1F` (stereo partly drawn) [Example 162, 10-[(1S)-1-(2-fluorophenyl)ethoxy]-1,2,3,4,4a,5-hexahydropyrazino[1,2-a][1,5]benzodiazepin-6(7H)-one], the results for the EC50 on 5HT2B receptors and on 5HT2C receptors were 1 µM and 0.07 µM, respectively. Also, the results for the Emax at 5HT2B receptors (setting [2]) and at 5HT2C receptors (setting [1]) were 20% and over 120%, respectively.
Regarding `COc1cccc(-c2ccc3c(c2)N2CCNCC2CC(=O)N3)c1` (stereo not drawn) [Example 65, 10-(3-methoxyphenyl)-1,2,3,4,4a,5-hexahydropyrazino[1,2-a][1,5]benzodiazepin-6(7H)-one], the EC50 was over 10 µM at 5HT2B receptors and 0.05 µM at 5HT2C receptors. In addition, the Emax on 5HT2C receptors (setting [1]) was over 120%.
